From article PMC4114018 (Science signaling, 2013)

Columns and labels:
mouse GPR17 (mGPR17) = mouse GPR17 (mGPR17) (Mus musculus, UniProt Q6NS65); experiment: label-free DMR and second messenger assays, HEK293 cells; format: cell-based; conditions: agonist
rat GPR17 (rGPR17) = rat GPR17 (rGPR17) (Rattus norvegicus, UniProt Q09QM4); experiment: as above; format: cell-based; conditions: agonist
Sequence of rat GPR17 (rGPR17) (Q09QM4 whole entry): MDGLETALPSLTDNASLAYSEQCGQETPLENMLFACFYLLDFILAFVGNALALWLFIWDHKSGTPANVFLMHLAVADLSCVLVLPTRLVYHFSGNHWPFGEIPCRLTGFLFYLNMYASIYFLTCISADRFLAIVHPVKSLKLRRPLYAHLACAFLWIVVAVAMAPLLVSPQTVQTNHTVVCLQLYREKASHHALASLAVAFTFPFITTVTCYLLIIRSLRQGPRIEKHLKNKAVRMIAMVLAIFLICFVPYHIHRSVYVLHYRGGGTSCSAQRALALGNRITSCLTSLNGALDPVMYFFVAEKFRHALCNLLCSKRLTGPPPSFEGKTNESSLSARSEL

Sequence of mouse GPR17 (mGPR17) (Q6NS65 whole entry): as the sequence (Q09QM4 whole entry) above, with D2N, T6A, A15S, S270A counted along it

SMILES: O=C(O)CCc1c(C(=O)O)[nH]c2cc(Cl)cc(Cl)c12 [compound 2, 2-carboxy-4,6-dichloro-1H-indole-3-propionic acid]
- EC50 (mouse GPR17 (mGPR17)): concentration-dependent activation of rGPR17 and mGPR17 was observed
- EC50 (rat GPR17 (rGPR17)): concentration-dependent activation of rGPR17 and mGPR17 was observed
